Test results reported in PubChem BioAssay (NCI).
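Assay format: 96-well plates, 48-hour exposure. GI50 marks 50% less growth. The concentration for full growth arrest is given as TGI.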

How the values were obtained:
Test in all cases: NCI-60 cell line screen, 48 h; in the data active = GI50 below about 0.43 µM; inactive = the rest
[1] = test system: EKVX NSCLC
[2] = test system: A549 NSCLC
[3] = test system: K-562 leukemia
[4] = test system: MDA-MB-231 breast
[5] = test system: SK-MEL-28 melanoma
[6] = test system: BT-549 breast
[7] = test system: COLO 205 colon
[8] = test system: SN12C renal
[9] = test system: NCI-H23 lung
[10] = test system: CAKI-1 renal
[11] = test system: T-47D breast
[12] = test system: HCT-116 colon
[13] = test system: SR leukemia
[14] = test system: RPMI-8226 leukemia
[15] = test system: MALME-3M melanoma
[16] = test system: SW-620 colon
[17] = test system: SF-539 CNS
[18] = test system: MDA-MB-435
[19] = test system: A498 renal
[20] = test system: MOLT-4 leukemia
[21] = test system: HS 578T breast
[22] = test system: KM12 colon
[23] = test system: DU-145 prostate
[24] = test system: U251 CNS
[25] = test system: SK-MEL-2 melanoma
[26] = test system: LOX IMVI melanoma
[27] = test system: SF-295 CNS
[28] = test system: NCI-H522 lung
[29] = test system: HL-60(TB) leukemia
[30] = test system: OVCAR-5 ovarian
[31] = test system: ACHN renal
[32] = test system: HT29 colon
[33] = test system: TK-10 renal
[34] = test system: OVCAR-8 ovarian
[35] = test system: OVCAR-3 ovarian
[36] = test system: SNB-19 CNS
[37] = test system: HOP-92 NSCLC
[38] = test system: OVCAR-4 ovarian
[39] = test system: SK-OV-3 ovarian
[40] = test system: PC-3 prostate
[41] = test system: NCI-H226 lung
[42] = test system: IGROV1 ovarian
[43] = test system: UACC-257 melanoma
[44] = test system: MCF7 breast
[45] = test system: NCI/ADR-RES ovarian
[46] = test system: NCI-H460 lung
[47] = test system: SF-268 CNS
[48] = test system: M14 melanoma
[49] = test system: UACC-62 melanoma
[50] = test system: UO-31 renal
[51] = test system: HCT-15 colon
[52] = test system: SK-MEL-5 melanoma
[53] = test system: HOP-62 NSCLC
[54] = test system: 786-0 renal
[55] = test system: MDA-N
[56] = test system: RXF 393 renal
[57] = test system: SNB-75 CNS
[58] = test system: CCRF-CEM leukemia
[59] = test system: HCC-2998 colon

CN(C)CCNCCN
> 100 µM: TGI [1] | TGI [2] | TGI [3] | TGI [4] | TGI [5] | TGI [6] | TGI [7] | TGI [8] | TGI [9] | TGI [10] | TGI [11] | TGI [12] | TGI [13] | TGI [14] | TGI [15] | TGI [16] | TGI [17] | TGI [18] | TGI [19] | TGI [20] | TGI [21] | TGI [22] | TGI [23] | TGI [24] | TGI [25] | TGI [26] | TGI [27] | TGI [28] | TGI [29] | TGI [30] | TGI [31] | TGI [32] | TGI [33] | TGI [34] | TGI [35] | TGI [36] | TGI [37] | TGI [38] | TGI [39] | TGI [40] | TGI [41] | TGI [42] | TGI [43] | TGI [44] | TGI [45] | TGI [46] | TGI [47] | TGI [48] | TGI [49] | TGI [50] | TGI [51] | TGI [52] | TGI [53] | TGI [54] | TGI [55]

CSc1c(C#N)c(N)n(-c2ccc(C)cc2)c(=O)c1C#N
> 100 µM: TGI [1] | TGI [2] | TGI [56] | TGI [3] | TGI [4] | TGI [5] | TGI [6] | TGI [7] | TGI [8] | TGI [9] | TGI [10] | TGI [11] | TGI [12] | TGI [13] | TGI [57] | TGI [14] | TGI [15] | TGI [16] | TGI [17] | TGI [18] | TGI [19] | TGI [20] | TGI [21] | TGI [22] | TGI [23] | TGI [24] | TGI [25] | TGI [26] | TGI [28] | TGI [29] | TGI [30] | TGI [32] | TGI [33] | TGI [34] | TGI [35] | TGI [36] | TGI [38] | TGI [58] | TGI [39] | TGI [40] | TGI [41] | TGI [42] | TGI [43] | TGI [44] | TGI [59] | TGI [45] | TGI [46] | TGI [47] | TGI [48] | TGI [49] | TGI [50] | TGI [51] | TGI [52] | TGI [54] | TGI [55]

COC(=O)c1cc2c(o1)-c1nccc3c1c(nc1ccccc13)C2=O
39.1 µM: TGI [19]
5.95 µM: TGI [12]
24.8 µM: TGI [32]
18 µM: TGI [14]
15.3 µM: TGI [43]
18.1 µM: TGI [8]
17.7 µM: TGI [37]
1.81 µM: TGI [18]
5.96 µM: TGI [15]
18.2 µM: TGI [6]
2.51 µM: TGI [13]
10.2 µM: TGI [48]
24.3 µM: TGI [50]
16.2 µM: TGI [26]
6.38 µM: TGI [34]
39.5 µM: TGI [4]
15.5 µM: TGI [58]
52.2 µM: TGI [33]
16.7 µM: TGI [22]
38.9 µM: TGI [24]
32.3 µM: TGI [10]
35 µM: TGI [1] | TGI [46]
26.7 µM: TGI [9]
14.7 µM: TGI [31]
29.6 µM: TGI [40]
11.1 µM: TGI [51]
5.68 µM: TGI [45]
17.5 µM: TGI [16]
2.22 µM: TGI [55]
37.1 µM: TGI [21]
34.3 µM: TGI [30]
6.94 µM: TGI [36]
15.6 µM: TGI [44]
4.69 µM: TGI [52]
4.76 µM: TGI [29]
11 µM: TGI [53]
24.2 µM: TGI [47]
25.4 µM: TGI [5] | TGI [41]
7.28 µM: TGI [20]
22.9 µM: TGI [23]
29.3 µM: TGI [7]
14 µM: TGI [54]
4.37 µM: TGI [35]
39.8 µM: TGI [39]
4.42 µM: TGI [42]
inactive: GI50 [1] 14.9 µM | GI50 [2] 4.66 µM | GI50 [4] 5.1 µM | GI50 [5] 11.5 µM | GI50 [6] 4.05 µM | GI50 [7] 14.9 µM | GI50 [8] 4.04 µM | GI50 [9] 5.66 µM | GI50 [10] 9.48 µM | GI50 [11] 1.88 µM | GI50 [12] 1.92 µM | GI50 [13] 0.519 µM | GI50 [14] 2.03 µM | GI50 [15] 1.89 µM | GI50 [16] 3.78 µM | GI50 [17] 2.69 µM | GI50 [18] 0.538 µM | GI50 [19] 18 µM | GI50 [20] 2.64 µM | GI50 [21] 14.2 µM | GI50 [22] 3.77 µM | GI50 [23] 4.26 µM | GI50 [24] 5.05 µM | GI50 [26] 3.61 µM | GI50 [27] 4.51 µM | GI50 [29] 2 µM | GI50 [30] 17.3 µM | GI50 [31] 2.27 µM | GI50 [32] 8.01 µM | GI50 [33] 22.9 µM | GI50 [34] 2.1 µM | GI50 [35] 1.26 µM | GI50 [36] 2.28 µM | GI50 [37] 1.96 µM | GI50 [58] 3.79 µM | GI50 [39] 10.7 µM | GI50 [40] 3.41 µM | GI50 [41] 8.08 µM | GI50 [42] 1.4 µM | GI50 [43] 3.68 µM | GI50 [44] 2.07 µM | GI50 [45] 2.11 µM | GI50 [46] 12.2 µM | GI50 [47] 2.82 µM | GI50 [48] 2.31 µM | GI50 [50] 5.49 µM | GI50 [51] 1.57 µM | GI50 [52] 1.2 µM | GI50 [53] 1.4 µM | GI50 [54] 2.93 µM | GI50 [55] 0.691 µM
18.3 µM: TGI [27]
21.1 µM: TGI [2]
9.7 µM: TGI [17]
6.9 µM: TGI [11]
